The record followed here is ChEMBL document CHEMBL5126496, “A novel compound active against SARS-CoV-2 targeting uridylate-specific endoribonuclease (NendoU/NSP15): in silico and in vitro investigations” (RSC Med Chem, 2021).

One series deals with Vero. The experiment in a line: Cytotoxicity against African green monkey Vero cells at 50 uM. It counts as toxicity, cell-based. The following applies: chlorocebus sabaeus.
Series [1] deals with SARS-CoV-2. The experiment in a line: Antiviral activity against SARS-CoV-2 MT020880 infected in African green monkey Vero cells assessed as inhibition of viral entry preincubated for 1 hr. Type of series: functional, organism-based, Severe acute respiratory syndrome coronavirus 2.
For series [2], the system named is SARS-CoV-2. The series can be described thus: Antiviral activity against SARS-CoV-2 MT020880 infected in African green monkey Vero cells measured after 48 hrs by spread assay. It counts as functional, organism-based, Severe acute respiratory syndrome coronavirus 2.
For series [3], the system named is SARS-CoV-2. The series can be described thus: Antiviral activity against SARS-CoV-2 MT020880 infected in African green monkey Vero cells assessed as inhibition of viral entry preincubated for 1 hr at 10 uM. It counts as functional.
Where [4] appears, read: Severe acute respiratory syndrome coronavirus 2, MT020880, Vero.

For orientation: IC50 means the concentration that gives 50% inhibition. Usually inhibition stands for the share of the control response that was lost under treatment.

With `CC(C)(C)c1ccc(CN2CCN(C[C@H](O)[C@@H](N)Cc3ccccc3)CC2)cc1`, the Activity entry in the series with Vero is “Non-Toxic”. Also, the IC50 is 7.28 µM in the series on SARS-CoV-2 [1] (setting [4]) and 8.46 µM in the series with SARS-CoV-2 [2] (Severe acute respiratory syndrome coronavirus 2, MT020880, Vero, 48 h). In addition, in the series with SARS-CoV-2 [3] (setting [4]), the inhibition at 10 µM came out at 90%.

For the compound IVERMECTIN [listing 1 of 2 here], the Activity result in the series on Vero is “Toxic”. For the same compound, the concentration for half-maximal inhibition (IC50) turned out to be 4.97 µM with SARS-CoV-2 [1] (vero) and 5.53 µM with SARS-CoV-2 [2] (vero).

Turning to IVERMECTIN [listing 2 of 2 here], the inhibition with SARS-CoV-2 [3] (Severe acute respiratory syndrome coronavirus 2) worked out at 90%.
